Laboratory results: patent US20230079819A1, “COMPOUNDS AND USES THEREOF” (Foghorn Therapeutics Inc., priority 2019, published 2023)
Read-outs that look alike come from different tables or passages of the source.

Columns and labels:
[1] = tested on: uveal melanoma cell lines (92-1, MP41, MP38, MP46); assay: Growth of uveal melanoma cell lines with compound 67, 3 days, Cell-titer glo; format: cell-based; conditions: 0 to 10 micromolar
[2] = tested on: uveal melanoma cell lines 92-1 or MP41; assay: Growth inhibition of uveal melanoma cell lines, compound 67 compared with clinical PKC and MEK inhibitors, 3 days, Cell-titer glo; format: cell-based; conditions: vs LXS196 and Selumetinib
[3] = tested on: uveal melanoma cell line 92-1; assay: Inhibition of cell proliferation of uveal melanoma cell line 92-1; format: cell-based
[4] = tested on: uveal melanoma cell line MP41; assay: Inhibition of cell proliferation of uveal melanoma cell line MP41; format: cell-based
[5] = tested on: parental and PKC-inhibitor refractory uveal melanoma cell lines; assay: Inhibition of cell proliferation of parental and PKC-inhibitor refractory uveal melanoma cell lines; format: cell-based
[6] = tested on: MP41 uveal melanoma cells, parental and PKCi-resistant; assay: 7-day growth inhibition assay in parental and PKC inhibitor-resistant MP41 cells; format: cell-based; conditions: 7-day assay
[7] = tested on: several cancer cell lines; assay: Inhibition of cell proliferation of several cancer cell lines; format: cell-based
[8] = tested on: uveal melanoma cell lines 92-1 or MP41; assay: Growth inhibition of uveal melanoma cell lines, Compound A compared with clinical PKC and MEK inhibitors, 3 days, Cell-titer glo; format: cell-based; conditions: vs LXS196 and Selumetinib
BRM = target: T1, BRM (Homo sapiens, UniProt P51531); assay: ATPase catalytic activity of BRM, ADP-Glo in vitro biochemical assay; conditions: ATPase catalytic activity, 30 nM BRM, 400 μM ATP
T1 construct: made in house; host or cells: High Five insect cells
T1 sequence (P51531 whole entry): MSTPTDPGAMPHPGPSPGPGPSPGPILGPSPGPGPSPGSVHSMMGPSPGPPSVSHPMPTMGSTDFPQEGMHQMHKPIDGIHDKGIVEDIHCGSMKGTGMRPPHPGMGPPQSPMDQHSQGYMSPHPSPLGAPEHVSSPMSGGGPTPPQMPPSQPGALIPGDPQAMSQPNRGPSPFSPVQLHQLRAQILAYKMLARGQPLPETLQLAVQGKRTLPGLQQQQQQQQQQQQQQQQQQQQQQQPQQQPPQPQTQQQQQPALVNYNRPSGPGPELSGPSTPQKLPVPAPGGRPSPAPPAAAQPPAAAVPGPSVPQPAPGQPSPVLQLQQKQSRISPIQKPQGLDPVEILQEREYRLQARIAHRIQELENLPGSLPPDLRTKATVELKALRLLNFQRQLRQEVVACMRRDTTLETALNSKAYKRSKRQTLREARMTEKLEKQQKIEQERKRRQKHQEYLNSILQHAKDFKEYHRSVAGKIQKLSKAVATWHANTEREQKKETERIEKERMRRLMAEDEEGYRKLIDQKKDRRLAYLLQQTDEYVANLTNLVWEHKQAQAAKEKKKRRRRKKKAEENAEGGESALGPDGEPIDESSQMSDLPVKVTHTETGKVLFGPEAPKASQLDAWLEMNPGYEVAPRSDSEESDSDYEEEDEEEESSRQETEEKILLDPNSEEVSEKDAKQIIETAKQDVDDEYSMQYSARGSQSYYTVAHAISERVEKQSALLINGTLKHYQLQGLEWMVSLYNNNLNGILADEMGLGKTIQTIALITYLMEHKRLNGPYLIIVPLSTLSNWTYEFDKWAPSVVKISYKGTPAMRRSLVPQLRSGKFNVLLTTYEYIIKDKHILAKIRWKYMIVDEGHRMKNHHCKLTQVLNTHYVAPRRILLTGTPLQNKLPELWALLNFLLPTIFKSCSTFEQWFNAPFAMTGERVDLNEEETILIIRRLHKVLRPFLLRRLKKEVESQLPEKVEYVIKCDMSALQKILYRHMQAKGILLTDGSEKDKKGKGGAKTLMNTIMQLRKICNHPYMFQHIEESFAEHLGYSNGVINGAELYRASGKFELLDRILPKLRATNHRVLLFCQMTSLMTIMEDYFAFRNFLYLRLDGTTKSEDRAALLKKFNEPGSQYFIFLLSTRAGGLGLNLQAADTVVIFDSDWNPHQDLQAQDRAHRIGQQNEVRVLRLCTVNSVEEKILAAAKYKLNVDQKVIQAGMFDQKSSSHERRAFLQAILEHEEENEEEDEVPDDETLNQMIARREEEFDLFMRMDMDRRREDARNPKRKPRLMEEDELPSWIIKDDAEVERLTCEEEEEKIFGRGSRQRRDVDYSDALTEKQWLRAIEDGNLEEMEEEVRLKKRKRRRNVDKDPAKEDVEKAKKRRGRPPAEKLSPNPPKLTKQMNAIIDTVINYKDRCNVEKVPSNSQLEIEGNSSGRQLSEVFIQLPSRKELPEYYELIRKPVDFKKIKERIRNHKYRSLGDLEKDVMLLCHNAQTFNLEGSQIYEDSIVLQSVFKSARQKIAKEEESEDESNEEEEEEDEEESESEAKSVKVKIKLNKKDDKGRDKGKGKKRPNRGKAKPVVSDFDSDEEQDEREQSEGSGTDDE

BRG-1 = target: T2, BRG-1 (Homo sapiens, UniProt P51532); assay: ATPase catalytic activity of BRG-1, ADP-Glo in vitro biochemical assay; conditions: ATPase catalytic activity, 30 nM BRG-1, 400 μM ATP
T2 construct: made in house; host or cells: High Five insect cells
T2 sequence (P51532 whole entry): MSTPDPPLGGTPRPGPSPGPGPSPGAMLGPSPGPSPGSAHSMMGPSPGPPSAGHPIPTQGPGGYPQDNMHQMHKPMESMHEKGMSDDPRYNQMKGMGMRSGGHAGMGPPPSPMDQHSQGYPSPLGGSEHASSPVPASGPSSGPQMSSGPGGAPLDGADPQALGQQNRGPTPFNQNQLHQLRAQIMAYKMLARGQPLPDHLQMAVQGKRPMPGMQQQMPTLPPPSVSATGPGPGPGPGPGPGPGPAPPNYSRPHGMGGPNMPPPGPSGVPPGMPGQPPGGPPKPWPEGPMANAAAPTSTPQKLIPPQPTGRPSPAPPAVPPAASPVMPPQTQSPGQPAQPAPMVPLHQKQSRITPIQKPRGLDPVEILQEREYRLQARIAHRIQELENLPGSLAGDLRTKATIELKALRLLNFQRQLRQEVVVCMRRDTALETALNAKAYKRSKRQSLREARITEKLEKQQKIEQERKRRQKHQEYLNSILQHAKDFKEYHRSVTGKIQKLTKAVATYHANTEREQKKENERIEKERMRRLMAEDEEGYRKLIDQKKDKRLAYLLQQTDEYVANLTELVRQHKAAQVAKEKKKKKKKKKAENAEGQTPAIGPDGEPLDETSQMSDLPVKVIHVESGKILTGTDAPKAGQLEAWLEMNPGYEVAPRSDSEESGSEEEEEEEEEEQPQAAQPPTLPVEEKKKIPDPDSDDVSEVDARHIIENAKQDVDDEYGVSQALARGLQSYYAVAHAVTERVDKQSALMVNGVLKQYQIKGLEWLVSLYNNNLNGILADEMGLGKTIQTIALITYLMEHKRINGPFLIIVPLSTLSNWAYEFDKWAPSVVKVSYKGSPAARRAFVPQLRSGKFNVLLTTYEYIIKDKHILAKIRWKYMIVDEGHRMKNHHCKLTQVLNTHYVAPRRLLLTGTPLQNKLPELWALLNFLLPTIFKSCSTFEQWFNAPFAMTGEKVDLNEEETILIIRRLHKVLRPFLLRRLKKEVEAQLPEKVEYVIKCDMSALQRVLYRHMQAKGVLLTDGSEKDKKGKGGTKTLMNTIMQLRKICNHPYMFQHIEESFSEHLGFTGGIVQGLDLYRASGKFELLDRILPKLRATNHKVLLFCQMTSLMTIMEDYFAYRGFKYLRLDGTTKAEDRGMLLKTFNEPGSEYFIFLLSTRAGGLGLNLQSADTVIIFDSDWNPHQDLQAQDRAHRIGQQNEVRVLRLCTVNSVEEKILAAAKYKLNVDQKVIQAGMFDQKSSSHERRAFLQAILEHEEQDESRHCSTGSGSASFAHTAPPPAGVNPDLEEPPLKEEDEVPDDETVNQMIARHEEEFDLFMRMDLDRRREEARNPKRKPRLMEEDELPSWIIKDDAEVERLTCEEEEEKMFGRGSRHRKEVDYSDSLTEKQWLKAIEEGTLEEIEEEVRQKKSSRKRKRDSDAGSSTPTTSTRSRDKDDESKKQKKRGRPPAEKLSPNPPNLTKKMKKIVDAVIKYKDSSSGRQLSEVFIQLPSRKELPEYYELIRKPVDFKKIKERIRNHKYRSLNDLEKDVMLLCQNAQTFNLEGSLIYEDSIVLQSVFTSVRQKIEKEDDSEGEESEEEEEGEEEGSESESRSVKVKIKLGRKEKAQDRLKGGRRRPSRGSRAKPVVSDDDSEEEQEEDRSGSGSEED

[9] = 92-1 or MP41, 3 days, 0 to 10 micromolar

| IC50 (BRM; read-out: BRM IP50 (μM)*) [µM] | IC50 (BRG-1; read-out: BRG1 IP50 (μM)*) [µM] | IC50 (BRM; read-out: BRM IP50) [µM] | IC50 (BRG-1; read-out: BRG1 IP50) [µM] | SMILES | further results |
| --- | --- | --- | --- | --- | --- |
|  |  |  |  | CSCC[C@H](NC(=O)c1ccn(S(C)(=O)=O)c1)C(=O)Nc1nc(-c2cccc(-c3ccncc3)c2)cs1 [Compound 67, (S)-1-(methylsulfonyl)-N-(4-(methylthio)-1-oxo-1-((4-(3-(pyridin-4-yl)phenyl)thiazol-2-yl)amino)butan-2-yl)-1H-pyrrole-3-carboxamide] | growth inhibition in uveal melanoma cell lines (FIG. 5) [1]: potent growth inhibition; growth inhibition of uveal melanoma cells compared with clinical PKC and MEK inhibitors (FIG. 6A, 6B) [2, 9]: more potent effects on growth inhibition; onset of growth inhibition compared with clinical PKC and MEK inhibitors ([2]; 92-1 or MP41): faster onset of growth inhibition |
|  |  |  |  | CC1(N)CCN(c2cccnc2NC(=O)c2nc(-c3ncccc3C(F)(F)F)cnc2N)CC1 [LXS196, reference compound] | inhibition of cell proliferation [3]: inhibition of cell proliferation; inhibition of cell proliferation [4]: inhibition of cell proliferation; inhibition of cell proliferation [5]: inhibition of cell proliferation; growth tolerance of PKCi-resistant cells relative to parental MP41 cell line (FIG. 7A) [6]: could tolerate growth at higher concentrations |
|  |  |  |  | CSCC[C@H](NC(=O)c1ccc(N)cc1)C(=O)Nc1nc(-c2cccc(-c3ccncc3)c2)cs1 [Compound A] | inhibition of cell proliferation [7]: inhibition of cell proliferation; inhibition of cell proliferation [3]: inhibition of cell proliferation; inhibition of cell proliferation [4]: inhibition of cell proliferation; growth inhibition of uveal melanoma cells compared with clinical PKC and MEK inhibitors (FIG. 2A, 2B) [8, 9]: comparable growth inhibition; onset of inhibition compared with clinical PKC and MEK inhibitors ([8]; 92-1 or MP41): faster onset of inhibition |
| > 0.01 | > 0.01 |  |  | CS(=O)(=O)n1ccc(C(=O)NCC(=O)Nc2nc(-c3cccc(C#N)c3)cs2)c1 [Compound 33, N-(2-((4-(3-cyanophenyl)thiazol-2-yl)amino)-2-oxoethyl)-1-(methylsulfonyl)-1H-pyrrole-3-carboxamide] |  |
| > 0.01 | > 0.01 |  |  | C[C@H]1CCCN(c2cccc(-c3csc(NC(=O)CNC(=O)c4ccn(S(C)(=O)=O)c4)n3)c2)C1 [Compound 232] |  |
| > 0.01 | > 0.1 |  |  | CC(C)(C#N)n1ccc(C(=O)NCC(=O)Nc2nc(-c3cccc(C#N)c3)cs2)c1 [Compound 34, N-(2-((4-(3-cyanophenyl)thiazol-2-yl)amino)-2-oxoethyl)-1-(2-cyanopropan-2-yl)-1H-pyrrole-3-carboxamide] |  |
| < 0.01 | < 0.01 |  |  | C[C@H]1CN(c2cccc(-c3csc(NC(=O)CNC(=O)c4ccn(S(C)(=O)=O)c4)n3)c2)C[C@H](C)O1 [Compound 86, N-(2-((4-(3-((2S, 6S)-2,6-dimethylmorpholino)phenyl)thiazol-2-yl)amino)-2-oxoethyl)-1-(methylsulfonyl)-1H-pyrrole-3-carboxamide] |  |
|  |  | > 0.01 | > 0.01 | Cn1cc2c(n1)CCN(c1cccc(-c3csc(NC(=O)CNC(=O)c4ccn(S(C)(=O)=O)c4)n3)c1)C2 [Compound 446] |  |
|  |  | < 0.01 | < 0.01 | CS(=O)(=O)n1ccc(C(=O)NCC(=O)Nc2nc(-c3cccc(-c4ccnc(C5CC5)n4)c3)cs2)c1 [Compound 409] |  |
|  |  | > 0.01 | > 0.01 | CC(C)(C)n1ccc(C(=O)NCC(=O)Nc2nc(-c3cccc(N4CCCC(n5cncn5)C4)n3)cs2)c1 (stereo not shown) [Compound 709] |  |
|  |  | > 0.01 | > 0.01 | CN1C(=O)CC[C@@H]2CN(c3cccc(-c4csc(NC(=O)CNC(=O)c5ccn(C(C)(C)C)c5)n4)n3)CC[C@H]21 [Compound 643] |  |
| > 0.1 | > 0.1 |  |  | CO[C@@H]1CCCN(c2cccc(-c3csc(NC(=O)CNC(=O)c4ccn(C5(C)COC5)c4)n3)n2)C1 [Compound 330] |  |
| > 0.01 | > 0.01 |  |  | CS(=O)(=O)n1ccc(C(=O)NCC(=O)Nc2nc(-c3cccc(COc4ccccc4)c3)cs2)c1 [Compound 104, 1-(methylsulfonyl)-N-(2-oxo-2-((4-(3-(phenoxymethyl)phenyl)thiazol-2-yl)amino)ethyl)-1H-pyrrole-3-carboxamide] |  |
| > 0.01 | > 0.01 |  |  | C[C@]1(O)CCCN(c2cccc(-c3csc(NC(=O)CNC(=O)c4ccn(S(C)(=O)=O)c4)n3)c2)C1 [Compound 205] |  |
| > 0.1 | > 0.1 |  |  | CC(Oc1ccccc1)c1cccc(-c2csc(NC(=O)CNC(=O)c3ccn(S(C)(=O)=O)c3)n2)c1 (stereo not shown) [Compound 103, 1-(methylsulfonyl)-N-(2-oxo-2-((4-(3-(1-phenoxyethyl)phenyl)thiazol-2-yl)amino)ethyl)-1H-pyrrole-3-carboxamide] |  |
| < 0.01 | < 0.01 |  |  | C[C@@H]1CN(c2cccc(-c3csc(NC(=O)CNC(=O)c4ccn(S(C)(=O)=O)c4)n3)c2)C[C@@H](C)O1 [Compound 85, N-(2-((4-(3-((2R, 6R)-2,6-dimethylmorpholino)phenyl)thiazol-2-yl)amino)-2-oxoethyl)-1-(methylsulfonyl)-1H-pyrrole-3-carboxamide] |  |
|  |  | > 0.01 | > 0.1 | CN(C)C1CCCN(c2cccc(-c3csc(NC(=O)CNC(=O)c4ccn(C(C)(C)C)c4)n3)n2)C1 (stereo not shown) [Compound 680] |  |
| < 0.01 | < 0.01 |  |  | C[C@@H]1CN(c2cccc(-c3csc(NC(=O)CNC(=O)c4ccn(C(C)(C)C#N)c4)n3)c2)C[C@H](C)O1 [Compound 162] |  |
| > 0.01 | > 0.01 |  |  | CCOc1cccc(-c2csc(NC(=O)CNC(=O)c3ccn(S(C)(=O)=O)c3)n2)c1 [Compound 286] |  |
|  |  | > 0.01 | > 0.01 | CS(=O)(=O)n1ccc(C(=O)NCC(=O)Nc2nc(-c3cccc([C@@H]4CCCCO4)c3)cs2)c1 (racemic) [Compound 392] |  |
